Reference: ChEMBL document CHEMBL1124919, “Synthesis and biochemical studies of 7-substituted 4,6-androstadiene-3,17-diones as aromatase inhibitors” (J Med Chem, 1990)

Experiments:
Aromatase = target: T1, Aromatase (Homo sapiens, UniProt P11511); test: In vitro inhibition of human placental cytochrome P450 19A1
T1 sequence (P11511 whole entry): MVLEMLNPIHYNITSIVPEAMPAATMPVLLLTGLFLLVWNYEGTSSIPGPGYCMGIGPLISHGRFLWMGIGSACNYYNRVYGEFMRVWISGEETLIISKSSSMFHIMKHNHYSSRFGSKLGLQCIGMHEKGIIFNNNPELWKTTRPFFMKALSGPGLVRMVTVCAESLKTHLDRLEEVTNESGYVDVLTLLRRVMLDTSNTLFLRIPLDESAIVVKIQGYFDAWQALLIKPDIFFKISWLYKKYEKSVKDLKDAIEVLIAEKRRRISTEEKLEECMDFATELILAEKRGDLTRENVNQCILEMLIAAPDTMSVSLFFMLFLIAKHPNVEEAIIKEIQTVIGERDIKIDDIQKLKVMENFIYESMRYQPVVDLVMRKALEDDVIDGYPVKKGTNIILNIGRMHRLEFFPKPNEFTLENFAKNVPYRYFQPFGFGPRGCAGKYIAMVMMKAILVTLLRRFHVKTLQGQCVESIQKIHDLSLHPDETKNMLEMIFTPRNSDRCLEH

[1] = Apparent Km value was determined; format: ADME

| Structure (SMILES) | Ki (Aromatase) | Km [1] |
| --- | --- | --- |
| CC12CCC3C(C(Cc4ccc([N+](=O)[O-])cc4)=CC4=CC(=O)CCC43C)C1CCC2=O (configuration not stated) | 94 nM | – |
| CC12CCC3C(C(CCc4ccc(N)cc4)=CC4=CC(=O)CCC43C)C1CCC2=O (configuration not stated) | 88 nM | – |
| CC12CCC3C(C(CCc4ccc([N+](=O)[O-])cc4)=CC4=CC(=O)CCC43C)C1CCC2=O (configuration not stated) | 95 nM | – |
| CC12CCC3C(C(CCc4ccccc4)=CC4=CC(=O)CCC43C)C1CCC2=O (configuration not stated) | 174 nM | – |
| CC12CCC3C(C(c4ccccc4)=CC4=CC(=O)CCC43C)C1CCC2=O (configuration not stated) | 1420 nM | – |
| CC12CCC3C(C(Cc4ccc(N)cc4)=CC4=CC(=O)CCC43C)C1CCC2=O (configuration not stated) | 88 nM | – |
| C[C@]12CCC(=O)C=C1CC[C@@H]1[C@@H]2CC[C@]2(C)C(=O)CC[C@@H]12 [ANDROSTENEDIONE] | – | 0.051 µM |
